In patent publication US20200165194A1, “ADDITIVE COMPOSITION FOR CULTURE MEDIUM, ADDITIVE COMPOUND FOR CULTURE MEDIUM, AND METHOD FOR CULTURE OF CELLS OR TISSUE USING SAME” (NISSAN CHEMICAL CORPORATION, priority 2017, published 2020):
Where two headings read alike, the source gives them in different places.

Tests used:
Type in all cases: cell-based
[1] = test system: human malignant melanoma-derived cell line A375; test: Various human cancer cells-2, 3D culture, ATP assay (Experimental Example 6); settings: 4 days; for viability at 5 µM / viability at 10 µM: Homo sapiens, A-375, 96 h, read-out: number of viable cells (RLU), relative value to control (100%)
Description: (§1) Various human-derived cancer cells were precultured (single layer culture) in respective media shown below. […] The above-mentioned cells in the logarithmic growth phase were washed with PBS, a 0.25 w/v % trypsin-1 mmol/L EDTA (ethylenediaminetetraacetic acid) solution (manufactured by Wako Pure Chemical Industries, Ltd.) was added, and adherent cells were detached by incubating at 37° C. for 1-5 min. Each medium was added and the mixture was centrifuged. After resuspension in the same medium, each cell was recovered.
(§2) The aforementioned various cells were suspended in respective deacylated gellan gum-containing or not containing media (deacylated gellan gum concentration was 0.015 w/v %), and seeded in a 96 well low attachment U-bottom plate (manufactured by Corning, #4520, deacylated gellan gum-free medium), or a low attachment flat bottom plate (manufactured by Corning, #3474, deacylated gellan gum-containing medium) at a cell concentration of 700-12000 cells/90 μL/well (all 3D culture). […] The amount of each compound solution to be added was 10 μL/well. As a control, a DMSO solution dissolved in a medium was added (DMSO final concentration 0.1%). […] When compared with the compound no-addition (control), one showing a value of not more than 119% as -, one showing a value of not less than 120% as ◯, and one showing a value of not less than 150% as ⊚ are shown in the eleventh table and the twelfth table. Unperformed test is left blank.

[2] = test system: human uterus cervix cancer-derived cell line HeLa; test: as above; settings: 4 days
Description: as §1, §2

[3] = test system: human prostate cancer-derived cell DU145; test: as above; settings: 4 days
Description: as §1, §2

[4] = test system: human epithelial-like cell cancer-derived cell line A431; test: as above; settings: 4 days; for viability at 5 µM: Homo sapiens, A-431, 96 h, read-out: number of viable cells (RLU), relative value to control (100%)
Description: as §1, §2

[5] = test system: human stomach adenocarcinoma-derived cell line AGS; test: as above; settings: 4 days; for viability at 5 µM / viability at 10 µM: Homo sapiens, 96 h, read-out: number of viable cells (RLU), relative value to control (100%)
Description: as §1, §2

[6] = test system: Canine kidney renal tubule epithelial cells (MDCK cells); test: MDCK cells-2: Cyst formation on Matrigel, size and number of Cysts (Experimental Example 8); settings: for proportion of Cysts of 70 μm or more: 6 days, control 35%; for Cyst morphology, confocal fluorescence microscope (in words): FIG. 1
Description: Canine kidney renal tubule epithelial cells (MDCK cells, manufactured by DS PHARMA BIO MEDICAL) were precultured in EMEM medium containing 10% FBS and 1% NEAA. Cold Matrigel (registered trade mark) Matrix GFR (manufactured by Corning) was spread on a 24-well plate by 50 μL and fixed by incubating at 37° C. for 15 min. The aforementioned MDCK cells were suspended in a medium at 10000 cells/mL, cold Matrigel (registered trade mark) Matrix GFR was added at 20 μL/mL and seeded at 1 mL/well. […] As a control (compound no-addition), DMSO was added at a final concentration of 0.1%. Six days later, the size and number of Cysts formed were measured using Cell^3iMager (manufactured by Screen Inc.). The proportion of the Cysts of 70 μm or more in the entire Cysts is shown in the fourteenth table.
The cells were washed with PBS (1 mL/well), 4% paraformaldehyde/PBS (manufactured by Wako Pure Chemical Industries, Ltd.) was added (1 mL/well) and fixed at room temperature for 20 min. Thereafter, the supernatant was removed, IF buffer (0.2% Triton X-100 (manufactured by Sigma-Aldrich), 0.05% Tween 20 (manufactured by Sigma-Aldrich)-containing PBS) were added at 1 mL/well, stood for 30 min and removed. Penetration buffer (0.5% Triton X-100 (manufactured by Sigma-Aldrich)/PBS) was added at 1 mL/well and incubated at room temperature for 30 min. The supernatant was removed, washed 3 times every 5 min with IF buffer, blocking buffer (1% BSA (manufactured by Sigma-Aldrich)/IF buffer) was added at 0.5 mL/well and incubated for 30 min. The supernatant was removed, an anti-P catenin antibody (manufactured by BD Bioscience) diluted 100-fold with blocking buffer was added at 250 μL/well, and the cells were incubated at room temperature for 60 min. The cells were washed 3 times every 5 min with IF buffer, the secondary antibody (Alexa Fluor 555, manufactured by Thermo Fisher Scientific) and Phalloidin (Alexa Fluor 488, manufactured by Thermo Fisher Scientific), each diluted 250-fold with blocking buffer, were added at 250 μL/well, and the cells were incubated at room temperature in shading for 60 min.

[7] = low attachment U-bottom plate, 5 μM
[8] = low attachment U-bottom plate, 10 μM
[9] = low attachment flat bottom plate (gellan gum medium), 5 μM
[10] = low attachment flat bottom plate (gellan gum medium), 10 μM

CC/C(=N\NC(=O)NCc1ccccc1)c1ccc(O)c(C)c1O [k-1:I-1]
viability at 5 µM [1, 7]: 120 to 150%
viability at 10 µM [1, 8]: 120 to 150%
viability at 5 µM [1, 9]: < 119%
viability at 10 µM [1, 10]: < 119%
viability at 5 µM ([2]; Homo sapiens, 96 h, low attachment U-bottom plate, 5 μM, read-out: number of viable cells (RLU), relative value to control (100%)): < 119%
viability at 10 µM ([2]; Homo sapiens, 96 h, low attachment U-bottom plate, 10 μM, read-out: number of viable cells (RLU), relative value to control (100%)): < 119%
viability at 5 µM ([3]; Homo sapiens, DU-145, 96 h, low attachment U-bottom plate, 5 μM, read-out: number of viable cells (RLU), relative value to control (100%)): < 119%
viability at 10 µM ([3]; Homo sapiens, DU-145, 96 h, low attachment U-bottom plate, 10 μM, read-out: number of viable cells (RLU), relative value to control (100%)): 120 to 150%
viability at 5 µM ([3]; Homo sapiens, DU-145, 96 h, low attachment flat bottom plate (gellan gum medium), 5 μM, read-out: number of viable cells (RLU), relative value to control (100%)): 120 to 150%
number of viable cells (RLU), relative value to control (100%) [3, 10]: ⊙
viability at 5 µM [4, 7]: 120 to 150%
viability at 5 µM [4, 9]: < 119%
number of viable cells (RLU), relative value to control (100%) [4, 8]: ⊙
number of viable cells (RLU), relative value to control (100%) [4, 10]: ⊙
viability at 5 µM [5, 7]: < 119%
viability at 10 µM [5, 8]: 120 to 150%
viability at 5 µM [5, 9]: 120 to 150%
viability at 10 µM [5, 10]: 120 to 150%
proportion of Cysts of 70 μm or more in the entire Cysts (in words) [6]: increased
proportion of Cysts of 70 μm or more ([6]; 5 μM): 39%
proportion of Cysts of 70 μm or more ([6]; 10 μM): 43%
Cyst morphology, confocal fluorescence microscope (in words) [6]: a normal Cyst was formed

CC/C(=N\NC(=O)C(C)Nc1ccccc1)c1ccc(O)c(C)c1O (stereo not shown) [k-1:B-1]
viability at 5 µM [1, 9]: > 120%
viability at 10 µM [1, 10]: > 120%
number of viable cells (RLU), relative value to control (100%) [1, 7]: ⊙
number of viable cells (RLU), relative value to control (100%) [1, 8]: ⊙
number of viable cells (RLU), relative value to control (100%) [2, 7]: ⊙
number of viable cells (RLU), relative value to control (100%) [2, 8]: ⊙
number of viable cells (RLU), relative value to control (100%) [2, 9]: ⊙
number of viable cells (RLU), relative value to control (100%) [2, 10]: ⊙
number of viable cells (RLU), relative value to control (100%) [3, 7]: ⊙
number of viable cells (RLU), relative value to control (100%) [3, 8]: ⊙
number of viable cells (RLU), relative value to control (100%) [3, 9]: ⊙
number of viable cells (RLU), relative value to control (100%) [3, 10]: ⊙
number of viable cells (RLU), relative value to control (100%) [4, 7]: ⊙
number of viable cells (RLU), relative value to control (100%) [4, 8]: ⊙
number of viable cells (RLU), relative value to control (100%) [4, 9]: ⊙
number of viable cells (RLU), relative value to control (100%) [4, 10]: ⊙
viability at 5 µM [5, 9]: > 120%
number of viable cells (RLU), relative value to control (100%) [5, 7]: ⊙
number of viable cells (RLU), relative value to control (100%) [5, 8]: ⊙
number of viable cells (RLU), relative value to control (100%) [5, 10]: ⊙
proportion of Cysts of 70 μm or more in the entire Cysts (in words) [6]: increased
proportion of Cysts of 70 μm or more ([6]; 5 μM): 72%
proportion of Cysts of 70 μm or more ([6]; 10 μM): 68%
Cyst morphology, confocal fluorescence microscope (in words) [6]: a normal Cyst was formed
